Patent US20210386367A1, “DEVICES AND SYSTEMS FOR GASTROINTESTINAL MICROBIOME DETECTION AND MANIPULATION” (Progenity, Inc., priority 2018, published 2021)
Values after ≈ are worked out from the molar mass of the structure shown. “Also recorded” adds a separate entry of the source. Read-outs that look alike come from different tables or passages of the source.

How the values were obtained:
Assay type in all cases: cell-based
[1] = test system: Enterobacter aerogenes; assay: Broth microdilution MIC, 50 clinical isolates
How it was run: (§1)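 CLSI broth microdilution in cation-adjusted Mueller Hinton broth, with 3% lysed horse blood added for streptococci. Two-fold dilutions, inoculum ~5×10^5 CFU/mL, 35° C for 16-24 hr in ambient air (streptococci with CO2 planchets). MIC = lowest concentration inhibiting visible growth.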

[2] = test system: Proteus mirabilis; assay: Broth microdilution MIC, 50 clinical isolates
How it was run: as §1

[3] = test system: Pseudomonas aeruginosa; assay: Broth microdilution MIC, 50 clinical isolates
How it was run: as §1

[4] = test system: three isolates each of E. coli, Streptococcus spp. and Bacteroides spp.; assay: Time-kill assay, overall summary
Experimental: MIC values were determined by broth microdilution in accordance with guidelines from the Clinical and Laboratory Standards Institute (CLSI; (1) “Methods for Dilution Antimicrobial Susceptibility Tests for Bacteria That Grow Aerobically; Approved Standard; 11th ed.,” CLSI standard M07, 2018; (2) “Performance Standards for Antimicrobial Susceptibility Testing; 28th ed.,” CLSI supplement M100, 2018).
During the time-kill study, the test flasks were sampled at 2, 6, and 24 hr for determination of viable counts using the track dilution method as described above. Bacteroides was also sampled at 48 hr. All E. coli plates were incubated for 20-24 hr at 35° C., Streptococci for 20-24 hr at 35° C. in a CO2 incubator, and Bacteroides for approximately 48 hr at 35° C. in the anaerobe chamber. Colonies were counted manually, and the CFU/mL was determined from the average count of the duplicate plates, followed by the calculation of the log10 CFU/mL. The limit of detection for the assay was 50 CFU/mL.

C[C@@H](O)[C@H]1C(=O)N2C(C(=O)O)=C(S[C@@H]3CN[C@H](C(=O)N(C)C)C3)[C@H](C)[C@H]12 [meropenem]
% I [1]: 2% | % S [1]: Ninety-eight | MIC range [1]: 0.015 to 2 µg/mL | Mode [1]: 0.03 µg/mL | relative activity among drugs tested [1]: most active drug evaluated; also recorded: most active agent | Cumulative percentage of isolates inhibited at MIC ([1]; 0.015 μg/mL): 36.0% | Number of test isolates at MIC ([1]; 0.015 μg/mL): 18 | Cumulative percentage of isolates inhibited at MIC ([1]; 0.03 μg/mL): 80.0% | Number of test isolates at MIC ([1]; 0.03 μg/mL): 22 | Cumulative percentage of isolates inhibited at MIC ([1]; 0.06 μg/mL): 94.0% | Number of test isolates at MIC ([1]; 0.06 μg/mL): 7 | Cumulative percentage of isolates inhibited at MIC ([1]; 1 μg/mL): 98.0% | Number of test isolates at MIC ([1]; 1 μg/mL): 1 | Cumulative percentage of isolates inhibited at MIC ([1]; 2 μg/mL): 100.0% | Number of test isolates at MIC ([1]; 2 μg/mL): 1 | MIC50 ([1]; Klebsiella aerogenes, read-out: MIC50): 0.03 µg/mL (≈ 0.0782 µM) | MIC90 ([1]; Klebsiella aerogenes, read-out: MIC90): 0.06 µg/mL (≈ 0.156 µM) | Cumulative percentage of isolates inhibited at MIC ([1]; […]): 96.0% | Number of test isolates at MIC ([1]; […]): 1 | % I ([1]; listed as MEM): 2% | % S ([1]; listed as MEM): 98% | % S [2]: 98% | MIC range [2]: ≤0.008 to 2 µg/mL | Mode [2]: 0.06 µg/mL | Cumulative percentage of isolates inhibited at MIC ([2]; 0.03 μg/mL): 38.0% | Number of test isolates at MIC ([2]; 0.03 μg/mL): 18 | Cumulative percentage of isolates inhibited at MIC ([2]; 0.06 μg/mL): 82.0% | Number of test isolates at MIC ([2]; 0.06 μg/mL): 2 | Cumulative percentage of isolates inhibited at MIC ([2]; 2 μg/mL): 100.0% | Number of test isolates at MIC ([2]; 2 μg/mL): 1 | MIC50 ([2]; Proteus mirabilis, read-out: MIC50): 0.06 µg/mL (≈ 0.156 µM) | MIC90 ([2]; Proteus mirabilis, read-out: MIC90): 0.12 µg/mL (≈ 0.313 µM) | % I ([2]; listed as MEM): 2% ^ | Cumulative percentage of isolates inhibited at MIC ([2]; ≤0.008 μg/mL): 2.0% | Number of test isolates at MIC ([2]; ≤0.008 μg/mL): 1 | % I [3]: 10% | % R [3]: Eighteen | % S [3]: 72% | Mode [3]: 0.25 µg/mL | relative activity among drugs tested [3]: most active drug evaluated; also recorded: most active agent | Cumulative percentage of isolates inhibited at MIC ([3]; 0.03 μg/mL): 2.0% | Number of test isolates at MIC ([3]; 0.03 μg/mL): 1 | Cumulative percentage of isolates inhibited at MIC ([3]; 0.06 μg/mL): 6.0% | Number of test isolates at MIC ([3]; 0.06 μg/mL): 2 | Cumulative percentage of isolates inhibited at MIC ([3]; 0.5 μg/mL): 56.0% | Number of test isolates at MIC ([3]; 0.5 μg/mL): 5 | Cumulative percentage of isolates inhibited at MIC ([3]; 1 μg/mL): 66.0% | Number of test isolates at MIC ([3]; 1 μg/mL): 5 | Cumulative percentage of isolates inhibited at MIC ([3]; 2 μg/mL): 72.0% | Number of test isolates at MIC ([3]; 2 μg/mL): 3 | Cumulative percentage of isolates inhibited at MIC ([3]; 4 μg/mL): 84.0% | Number of test isolates at MIC ([3]; 4 μg/mL): 6 | Cumulative percentage of isolates inhibited at MIC ([3]; 8 μg/mL): 92.0% | Number of test isolates at MIC ([3]; 8 μg/mL): 4 | Cumulative percentage of isolates inhibited at MIC ([3]; >8 μg/mL): 100.0% | Number of test isolates at MIC ([3]; >8 μg/mL): 4 | MIC50 ([3]; Pseudomonas aeruginosa, read-out: MIC50): 0.5 µg/mL (≈ 1.3 µM) | MIC90 ([3]; Pseudomonas aeruginosa, read-out: MIC90): 8 µg/mL (≈ 20.9 µM) | % I ([3]; listed as MEM): 10% | % R ([3]; listed as MEM): 18% | overall time-kill outcome [4]: bactericidal activity

CO[C@H]1/C=C/O[C@@]2(C)Oc3c(C)c(O)c4c(O)c(c5c(nc6cc(C)ccn65)c4c3C2=O)NC(=O)/C(C)=C\C=C\[C@H](C)[C@H](O)[C@@H](C)[C@@H](O)[C@@H](C)[C@H](OC(C)=O)[C@@H]1C [rifaximin]
MIC50 [1]: 16 µg/mL (≈ 20.4 µM) | MIC90 [1]: 64 µg/mL (≈ 81.4 µM) | Mode [1]: 16 µg/mL | Cumulative percentage of isolates inhibited at MIC ([1]; 8 μg/mL): 20.0% | Number of test isolates at MIC ([1]; 8 μg/mL): 10 | Cumulative percentage of isolates inhibited at MIC ([1]; 16 μg/mL): 64.0% | Number of test isolates at MIC ([1]; 16 μg/mL): 22 | Cumulative percentage of isolates inhibited at MIC ([1]; 32 μg/mL): 88.0% | Number of test isolates at MIC ([1]; 32 μg/mL): 12 | Cumulative percentage of isolates inhibited at MIC ([1]; 64 μg/mL): 98.0% | Number of test isolates at MIC ([1]; 64 μg/mL): 5 | Cumulative percentage of isolates inhibited at MIC ([1]; >64 μg/mL): 100.0% | Number of test isolates at MIC ([1]; >64 μg/mL): 1 | MIC50 [2]: 4 µg/mL (≈ 5.09 µM) | MIC90 [2]: 8 µg/mL (≈ 10.2 µM) | Mode [2]: 4 µg/mL | Cumulative percentage of isolates inhibited at MIC ([2]; 4 μg/mL): 84.0% | Number of test isolates at MIC ([2]; 4 μg/mL): 42 | Cumulative percentage of isolates inhibited at MIC ([2]; 8 μg/mL): 96.0% | Number of test isolates at MIC ([2]; 8 μg/mL): 6 | Cumulative percentage of isolates inhibited at MIC ([2]; >64 μg/mL): 100.0% | Number of test isolates at MIC ([2]; >64 μg/mL): 2 | MIC50 [3]: 8 µg/mL (≈ 10.2 µM) | MIC90 [3]: 16 µg/mL (≈ 20.4 µM) | Mode [3]: 8 µg/mL | Cumulative percentage of isolates inhibited at MIC ([3]; 4 μg/mL): 16.0% | Number of test isolates at MIC ([3]; 4 μg/mL): 8 | Cumulative percentage of isolates inhibited at MIC ([3]; 8 μg/mL): 66.0% | Number of test isolates at MIC ([3]; 8 μg/mL): 25 | Cumulative percentage of isolates inhibited at MIC ([3]; 16 μg/mL): 94.0% | Number of test isolates at MIC ([3]; 16 μg/mL): 14 | Cumulative percentage of isolates inhibited at MIC ([3]; 32 μg/mL): 96.0% | Number of test isolates at MIC ([3]; 32 μg/mL): 1 | Cumulative percentage of isolates inhibited at MIC ([3]; 64 μg/mL): 98.0% | Number of test isolates at MIC ([3]; 64 μg/mL): 1 | Cumulative percentage of isolates inhibited at MIC ([3]; >64 μg/mL): 100.0% | Number of test isolates at MIC ([3]; >64 μg/mL): 1 | overall time-kill outcome [4]: bacteriostatic activity and regrowth was typically observed
